Test results: ChEMBL document CHEMBL4308897, “Antileishmanial activity and cytotoxicity of ent-beyerene diterpenoids” (Bioorg Med Chem, 2019)
Activity calls are given as the source filed them. The calls are words filed in the database; no cut-off is given here.

How the values were obtained:
[1] = Cytotoxicity against human U937 cells after 72 hrs by MTT assay; assay type: cell-based, U-937; details: read-out: LC50
[2] = Toxicity in golden hamster infected with Leishmania (Viannia) braziliensis HMOM/COL/88/UA301-EGFP assessed as effect on serum BUN level at 0.81% to 1.96% administered topically as cream formulation for 20 days and measured day 8 post last treatment; parameters: species or system Mesocricetus auratus; details: in vivo, topical_or_ocular, 480 h
Syrian golden hamster [3] = assay: (§1) Antiinflammatory activity in golden hamster infected with Leishmania (Viannia) braziliensis HMOM/COL/88/UA301-EGFP assessed as migration of macrophages in skin at 0.81% to 1.96% administered topically as cream formulation for 20 days and measured 3 months post last treatment by histopathological analysis; assay type: functional, organism-based; details: Mesocricetus auratus
Leishmania braziliensis [4] = assay: Antileishmanial activity against Leishmania (Viannia) braziliensis HMOM/COL/88/UA301-EGFP infected in golden hamster assessed as clinical failure at 1.96% administered topically as cream formulation for 20 days measured 3 months post last dose relative to control; assay type: functional
Leishmania braziliensis [5] = assay: Antileishmanial activity against Leishmania (Viannia) braziliensis HMOM/COL/88/UA301-EGFP infected in golden hamster assessed as parasitic load per milligram of tissue at 0.81 to 1.96% administered topically as cream formulation for 20 days measured 3 months post last dose by RT-PCR analysis; assay type: functional
Leishmania braziliensis [6] = assay: Antileishmanial activity against Leishmania (Viannia) braziliensis HMOM/COL/88/UA301-EGFP infected in golden hamster assessed as clinical failure at 0.81% administered topically as cream formulation for 20 days measured 3 months post last dose relative to control; assay type: functional
[7] = Hepatotoxicity in golden hamster infected with Leishmania (Viannia) braziliensis HMOM/COL/88/UA301-EGFP assessed as congestion at 0.81% to 1.96% administered topically as cream formulation for 20 days measured 90 days post last dose by histopathological analysis; assay type: toxicity, Mesocricetus auratus; details: in vivo, topical_or_ocular, 2160 h
[8] = Hepatotoxicity in golden hamster infected with Leishmania (Viannia) braziliensis HMOM/COL/88/UA301-EGFP assessed as infiltration of macrophages at 0.81% to 1.96% administered topically as cream formulation for 20 days measured 90 days post last dose by histopathological analysis; assay type: toxicity, Mesocricetus auratus; details: in vivo, topical_or_ocular, 2160 h
Leishmania braziliensis [9] = assay: Antileishmanial activity against Leishmania (Viannia) braziliensis HMOM/COL/88/UA301-EGFP infected in golden hamster assessed as clinical improvement at 1.96% administered topically as cream formulation for 20 days measured 3 months post last dose relative to control; assay type: functional
Leishmania braziliensis [10] = assay: Antileishmanial activity against Leishmania (Viannia) braziliensis HMOM/COL/88/UA301-EGFP infected in golden hamster assessed as cure rate at 1.96% administered topically as cream formulation for 20 days measured 3 months post last dose relative to control; assay type: functional
[11] = Selectivity index, ratio of LC50 for human U937 cells to EC50 for Leishmania (Viannia) braziliensis HMOM/COL/88/UA301-EGFP intracellular amastigotes infected in human U937 cells; assay type: toxicity, cell-based; details: read-out: Selectivity Index
[12] = Hepatotoxicity in golden hamster infected with Leishmania (Viannia) braziliensis HMOM/COL/88/UA301-EGFP assessed as vacuolar degeneration at 0.81% to 1.96% administered topically as cream formulation for 20 days measured 90 days post last dose by histopathological analysis; assay type: toxicity, Mesocricetus auratus; details: in vivo, topical_or_ocular, 2160 h
Leishmania braziliensis [13] = assay: Antileishmanial activity against Leishmania (Viannia) braziliensis HMOM/COL/88/UA301-EGFP infected in golden hamster assessed as cure rate at 0.81% administered topically as cream formulation for 20 days measured 3 months post last dose relative to control; assay type: functional
Leishmania braziliensis [14] = assay: Antileishmanial activity against Leishmania (Viannia) braziliensis HMOM/COL/88/UA301-EGFP intracellular amastigotes infected in human U937 cells after 72 hrs by flow cytometric analysis; assay type: functional, organism-based; details: HMOM/COL/88/UA301, U-937, 72 h
[15] = Hepatotoxicity in golden hamster infected with Leishmania (Viannia) braziliensis HMOM/COL/88/UA301-EGFP assessed as hemosiderin pigmentation at 0.81% to 1.96% administered topically as cream formulation for 20 days measured 90 days post last dose by histopathological analysis; assay type: toxicity, Mesocricetus auratus; details: in vivo, topical_or_ocular, 2160 h
[16] = Toxicity in golden hamster infected with Leishmania (Viannia) braziliensis HMOM/COL/88/UA301-EGFP assessed as effect on serum alanine aminotransferase level at 0.81% to 1.96% administered topically as cream formulation for 20 days and measured day 8 post last treatment; parameters: species or system Mesocricetus auratus; details: in vivo, topical_or_ocular, 480 h
[17] = Hepatotoxicity in golden hamster infected with Leishmania (Viannia) braziliensis HMOM/COL/88/UA301-EGFP assessed as infiltration of lymphocytes at 0.81% to 1.96% administered topically as cream formulation for 20 days measured 90 days post last dose by histopathological analysis; assay type: toxicity, Mesocricetus auratus; details: in vivo, topical_or_ocular, 2160 h
Syrian golden hamster [18] = assay: as §1, with “plasmocytes” for “macrophages”; assay type: functional, organism-based; details: Mesocricetus auratus
Syrian golden hamster [19] = assay: as §1, with “lymphocytes” for “macrophages”; assay type: functional, organism-based; details: Mesocricetus auratus
Leishmania braziliensis [20] = assay: Antileishmanial activity against Leishmania (Viannia) braziliensis HMOM/COL/88/UA301-EGFP infected in golden hamster assessed as relapse at 0.81% administered topically as cream formulation for 20 days measured 3 months post last dose relative to control; assay type: functional
Leishmania braziliensis [21] = assay: Antileishmanial activity against Leishmania (Viannia) braziliensis HMOM/COL/88/UA301-EGFP infected in golden hamster assessed as relapse at 1.96% administered topically as cream formulation for 20 days measured 3 months post last dose relative to control; assay type: functional
[22] = Toxicity in golden hamster infected with Leishmania (Viannia) braziliensis HMOM/COL/88/UA301-EGFP assessed as change in body weight at 0.81% to 1.96% administered topically as cream formulation for 20 days measured up to 90 days post last dose; parameters: species or system Mesocricetus auratus; details: in vivo, topical_or_ocular
Leishmania braziliensis [23] = assay: Antileishmanial activity against Leishmania (Viannia) braziliensis HMOM/COL/88/UA301-EGFP infected in golden hamster assessed as clinical improvement at 0.81% administered topically as cream formulation for 20 days measured 3 months post last dose relative to control; assay type: functional
[24] = Renal toxicity in golden hamster infected with Leishmania (Viannia) braziliensis HMOM/COL/88/UA301-EGFP assessed as vacuolar degeneration at 0.81% to 1.96% administered topically as cream formulation for 20 days measured 90 days post last dose by histopathological analysis; parameters: species or system Mesocricetus auratus; details: in vivo, topical_or_ocular, 2160 h
[25] = Toxicity in golden hamster infected with Leishmania (Viannia) braziliensis HMOM/COL/88/UA301-EGFP assessed as effect on serum creatinine level at 0.81% to 1.96% administered topically as cream formulation for 20 days and measured day 8 post last treatment; parameters: species or system Mesocricetus auratus; details: in vivo, topical_or_ocular, 480 h

With `C[C@]12C=C[C@@]3(CC[C@@H]4[C@](C)(CO)CCC[C@@]4(C)[C@@H]3CC1)C2` the CC50 at 72 h [1] was 114 µM, the Activity [2] was “Non-Toxic” and the Activity (Syrian golden hamster [3]) was “Active”. For the same compound, the Activity (Leishmania braziliensis [4]) was 16.7%, the Activity (Leishmania braziliensis [5]) was under 500 and the Activity (Leishmania braziliensis [6]) was 0%. For the same compound, the Activity [7] was “Toxic”, the Activity [8] was “Toxic” and the Activity (Leishmania braziliensis [9]) was 50%. For the same compound, the Activity (Leishmania braziliensis [10]) was 16.7%, the selectivity ratio [11] was 5.1 and the Activity [12] was “Toxic”. The Activity (Leishmania braziliensis [13]) was 50%, the EC50 (Leishmania braziliensis [14]) was 16 µM and the Activity [15] was “Toxic”. For the same compound, the Activity [16] was “Non-Toxic”, the Activity [17] was “Toxic” and the Activity (Syrian golden hamster [18]) was “Active”. The Activity (Syrian golden hamster [19]) was “Active”, the Activity (Leishmania braziliensis [20]) was 0% and the Activity (Leishmania braziliensis [21]) was 16.7%. The Activity [22] was “Non-Toxic”, the Activity (Leishmania braziliensis [23]) was 50% and the Activity [24] was “Toxic”. The Activity [25] was “Non-Toxic”.
